Test results as given in publication PMC9597602, “Metal Complexes as Antifungals? From a Crowd-Sourced Compound Library to the First In Vivo Experiments” (JACS Au, 2022).
Several values for one entry are separate records, joined by “and”; a condition that tells them apart may be missing. Equal values may be shown once. Read-outs that look alike come from different tables or passages of the source. Starred links: 1 amine or outer side, 2 acyl side, 3 side chain; linkers in the order of their positions; H or OH if unused. Positions of bridges follow the written chain, without caps; N, C: chain ends. Non-standard residues stand in square brackets, D forms with d. Residues, ends and D or L forms follow the SMILES beside them. *: point of attachment. hTyr(3S-OH,4S-OH,3'-OSO3H) = N[C@H](C(=O)O)[C@H](O)[C@@H](O)c1ccc(O)c(OS(=O)(=O)O)c1; Orn(4R-OH,5R-OH) = O=C([C@H](C[C@@H](O)[C@@H](O)N[*:3])N[*:1])[*:2]; Pro(3S-OH,4S-Me) = C[C@H]1CN[C@H](C(=O)O)[C@H]1O; X1 = CCCCCOc1ccc(-c2cc(-c3ccc(C(=O)*)cc3)no2)cc1; Gln(3R-OH) = NC(=O)C[C@@H](O)[C@H](N)C(=O)O; Hyp = O=C(O)[C@@H]1C[C@@H](O)CN1

Columns and labels:
Format in all cases: cell-based
[1] = test system: Candida albicans ATCC 90028 NCCLS11; assay: Antifungal MIC assay; details: Candida albicans
How it was run: (§1)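 MIC is the lowest concentration at which growth fell by at least 80% (optically clear to slightly hazy, CLSI M27 score 0–1). Cells in YNB at a final 2.5 × 10^3 CFU/mL were incubated with compound for 36 h at 35 °C, unshaken.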

[2] = test system: Cryptococcus neoformans H99 ATCC 208821 type strain; assay: Antifungal MIC assay; details: Cryptococcus neoformans
How it was run: as §1

[3] = test system: Candida auris CBS10913 JCM 15448; assay: Antifungal MIC assay, extended panel; details: Candidozyma auris, read-out: MIC* Candida auris CBS10913
Experimental: (§2) For the fungal assays, both fungi (yeast) strains were cultured for 3 days on Yeast Extract-Peptone Dextrose (YPD; Becton Dickinson 242720) agar at 30 °C. A yeast suspension of 1 × 10^6 to 5 × 10^6 CFU/mL (as determined by OD530) was prepared from five colonies from the agar plates, subsequently diluted with Yeast Nitrogen Base media (YNB; Becton Dickinson 233520), and added to each well of the compound containing plates (384-well plates, NBS; Corning CLS3640), giving a final cell density of 2.5 × 10^3 CFU/mL and a total volume of 50 μL. Plates were covered and incubated at 35 °C for 36 h without shaking. […] MIC […] Reference Method for Broth Dilution Antifungal Susceptibility Testing of Yeasts. […] Fluconazole (Sigma F8929) was used as internal control on each plate for all strains. All compounds were tested as two technical replicates in two to four independent biological assays, n = 4–8 final data.

[4] = test system: Candida auris CBS12373 KCTC 17810; assay: Antifungal MIC assay, extended panel; details: Candidozyma auris, read-out: MIC* Candida auris CBS12373
Experimental: as §2

[5] = test system: Candida glabrata ATCC 90030 NCCLS 84; assay: Antifungal MIC assay, extended panel; details: Nakaseomyces glabratus, ATCC90030, comparator antifungals
Experimental: (§3) For the fungal assays, both fungi (yeast) strains were cultured for 3 days on Yeast Extract-Peptone Dextrose (YPD; Becton Dickinson 242720) agar at 30 °C. A yeast suspension of 1 × 10^6 to 5 × 10^6 CFU/mL (as determined by OD530) was prepared from five colonies from the agar plates, subsequently diluted with Yeast Nitrogen Base media (YNB; Becton Dickinson 233520), and added to each well of the compound containing plates (384-well plates, NBS; Corning CLS3640), giving a final cell density of 2.5 × 10^3 CFU/mL and a total volume of 50 μL. Plates were covered and incubated at 35 °C for 36 h without shaking. […] MIC values were recorded as the lowest concentration at which the growth was inhibited by ≥80%, equivalent to ″optically clear-to-slightly hazy″ or MIC score of 0–1 as per CLSI guidelines M27 Reference Method for Broth Dilution Antifungal Susceptibility Testing of Yeasts. […] Fluconazole (Sigma F8929) was used as internal control on each plate for all strains. All compounds were tested as two technical replicates in two to four independent biological assays, n = 4–8 final data.

[6] = test system: Candida tropicalis ATCC 750; assay: Antifungal MIC assay, extended panel; details: Candida tropicalis, ATCC750, comparator antifungals
Experimental: as §3

[7] = test system: Cryptococcus deuterogattii ATCC 32609 VGII; assay: Antifungal MIC assay, extended panel; details: Cryptococcus deuterogattii, ATCC32609, comparator antifungals
Experimental: as §3

[8] = test system: Cryptococcus deuterogattii CBS7750 VGII; Serotype B; assay: Antifungal MIC assay, extended panel; details: Cryptococcus deuterogattii, CBS7750, comparator antifungals
Experimental: as §3

[9] = test system: Candida glabrata ATCC 90030 NCCLS 84; assay: Antifungal MIC assay, extended panel; details: Nakaseomyces glabratus, ATCC90030, read-out: MIC* Candida glabrata ATCC 90030
[10] = test system: Candida tropicalis ATCC 750; assay: Antifungal MIC assay, extended panel; details: Candida tropicalis, ATCC750, read-out: MIC* Candida tropicalis ATCC 750
[11] = test system: Cryptococcus deuterogattii CBS7750 VGII; Serotype B; assay: Antifungal MIC assay, extended panel; details: Cryptococcus deuterogattii, CBS7750, read-out: MIC* Cryptococcus deuterogattii CBS7750
[12] = test system: Cryptococcus deuterogattii ATCC 32609 VGII; assay: Antifungal MIC assay, extended panel; details: Cryptococcus deuterogattii, ATCC32609, read-out: MIC* Cryptococcus deuterogattii ATCC 32609
[13] = ATCC90028, comparator antifungals, MIC = ≥80% inhibition, read-out: MIC* Candida albicans ATCC 90028
[14] = ATCC90028, comparator antifungals, ≥80% inhibition, converted with MW of Table S12, read-out: MIC* Candida albicans ATCC 90028
[15] = ATCC208821, comparator antifungals, MIC = ≥80% inhibition, read-out: MIC* Cryptococcus neoformans ATCC 208821
[16] = ATCC208821, comparator antifungals, ≥80% inhibition, converted with MW of Table S12, read-out: MIC* Cryptococcus neoformans ATCC 208821
[17] = comparator antifungals, MIC = ≥80% inhibition
[18] = comparator antifungals, ≥80% inhibition, converted with MW of Table S12
[19] = ≥80% inhibition, converted with MW of Table S12

SMILES	MIC [1, 13]	MIC [1, 14]	MIC [2, 15]	MIC [2, 16]	MIC [3, 17]	MIC [3, 18]	MIC [4, 17]	MIC [4, 18]	MIC ([5]; MIC = ≥80% inhibition)	MIC [5, 19]	MIC ([6]; MIC = ≥80% inhibition)	MIC [6, 19]	MIC ([7]; MIC = ≥80% inhibition)	MIC [7, 19]	MIC ([8]; MIC = ≥80% inhibition)	MIC [8, 19]	other results
CCC(C)n1ncn(-c2ccc(N3CCN(c4ccc(OCC5COC(Cn6cncn6)(c6ccc(Cl)cc6Cl)O5)cc4)CC3)cc2)c1=O (stereo not shown) [Itraconazole, reference compound]	0.062 to 0.25 µg/mL	0.089 to 0.354 µM	1 to 2 µg/mL	1.42 to 2.83 µM	0.063 µg/mL	0.089 µM	2 µg/mL	2.83 µM	32 µg/mL	45 µM	2 µg/mL	2.83 µM	2 to 8 µg/mL	2.83 to 11.3 µM	2 to 4 µg/mL	2.83 to 5.67 µM	
CCCCCOc1ccc(-c2cc(-c3ccc(C(=O)N[C@H]4C[C@@H](O)[C@@H](O)NC(=O)[C@@H]5[C@@H](O)[C@@H](C)CN5C(=O)[C@H]([C@H](O)CC(N)=O)NC(=O)[C@H]([C@H](O)[C@@H](O)c5ccc(O)c(OS(=O)(=O)O)c5)NC(=O)[C@@H]5C[C@@H](O)CN5C(=O)[C@H]([C@@H](C)O)NC4=O)cc3)no2)cc1 [Micafungin, reference compound] (X1-[Orn(4R-OH,5R-OH)]T[Hyp][hTyr(3S-OH,4S-OH,3'-OSO3H)][Gln(3R-OH)][Pro(3S-OH,4S-Me)]; lactam 1-C)																	MIC ([1]; ATCC90028, read-out: MIC* Candida albicans ATCC 90028): ≤ 0.0005 µg/mL and ≤ 0.0007 µM; MIC ([2]; ATCC208821, read-out: MIC* Cryptococcus neoformans ATCC 208821): 0.015 µg/mL to 0.063 µg/mL and 0.017 µM to 0.07 µM; MIC [3]: ≤ 0.001 µg/mL and ≤ 0.0014 µM; MIC [4]: 2 µg/mL and 2.23 µM; MIC [9]: 4 µg/mL to 32 µg/mL and 4.45 µM to 35.7 µM; MIC [10]: 0.008 µg/mL to 0.063 µg/mL and 0.009 µM to 0.07 µM; MIC [11]: 0.06 µg/mL to 0.125 µg/mL and 0.07 µM to 0.139 µM; MIC [12]: 0.016 µg/mL to 0.125 µg/mL and 0.017 µM to 0.139 µM
Nc1nc(=O)[nH]cc1F [5-Fluorocytosine, reference compound]	≤ 0.001 µg/mL	≤ 0.012 µM	0.001 to 0.016 µg/mL	0.0107 to 0.172 µM	≤ 0.002 µg/mL	≤ 0.021 µM	≤ 0.002 µg/mL	≤ 0.021 µM	> 32 µg/mL	> 351 µM	0.001 to 0.002 µg/mL	0.012 to 0.021 µM	0.002 to 0.25 µg/mL	0.021 to 2.75 µM	0.06 to 0.25 µg/mL	0.686 to 2.75 µM	
